US7659404B2, “Broad spectrum 2-(substituted-amino)-benzothiazole sulfonamide HIV protease inhibitors” (Tibotec Pharmaceuticals Ltd., priority 2001, dated 2010)

Columns and labels:
HIV-1 strain LAI = test: Cellular anti-HIV assay in MT4 cells (MTT), wild type laboratory strain; format: cell-based; conditions: Human immunodeficiency virus 1, MT4, 120 h, read-out: EC50 value against HIV-1 strain LAI
Protocol: The compounds of the present invention were examined for anti-viral activity in a cellular assay. […] The cellular assay was performed according to the following procedure.
Cellular Assay Experimental Method:
(§1) HIV- or mock-infected MT4 cells were incubated for five days in the presence of various concentrations of the inhibitor. At the end of the incubation period, all HIV-infected cells have been killed by the replicating virus in the control cultures in the absence of any inhibitor. Cell viability is measured by measuring the concentration of MTT, a yellow, water soluble tetrazolium dye that is converted to a purple, water insoluble formazan in the mitochondria of living cells only. Upon solubilization of the resulting formazan crystals with isopropanol, the absorbance of the solution is monitored at 540 nm. The values correlate directly to the number of living cells remaining in the culture at the completion of the five day incubation. The inhibitory activity of the compound was monitored on the virus-infected cells and was expressed as EC50 and EC90. These values represent the amount of the compound required to protect 50% and 90%, respectively, of the cells from the cytopathogenic effect of the virus. The toxicity of the compound was measured on the mock-infected cells and was expressed as CC50, which represents the concentration of compound required to inhibit the growth of the cells by 50%. The selectivity index (SI) (ratio CC50/EC50) is an indication of the selectivity of the anti-HIV activity of the inhibitor.

virus strain F (R13025) = test: microbe, parasite or virus in culture; format: cell-based, HIV; conditions: FR=EC50(mutant strain)/EC50(HIV-1 strain LAI); strain F
Method in brief: (§2)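 MT4 cells, HIV- or mock-infected, were cultured five days with a range of inhibitor concentrations, and viability was then read by MTT conversion to formazan (isopropanol-solubilized, A540 nm). EC50/EC90 are the concentrations protecting 50%/90% of infected cells from viral cytopathic effect. Fold resistance = EC50(mutant strain)/EC50(HIV-1 LAI).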

virus strain S (R13080) = test: microbe, parasite or virus in culture; format: cell-based, HIV; conditions: FR=EC50(mutant strain)/EC50(HIV-1 strain LAI); strain S
Method in brief: as §2

[1] = test system: clinically isolated HIV strain H; format: cell-based; conditions: FR=EC50(mutant strain)/EC50(HIV-1 strain LAI)
Protocol: as §1, with “At the end of the incubation period, all HIV-infected cells have been killed by the replicating virus in the control cultures in the absence of any inhibitor.” left out
(§3) Because of the increasing emergence of drug resistant HIV strains, the present compounds were tested for their potency against clinically isolated HIV strains harboring several mutations.
(§4) As a measure of the broad spectrum activity of the present compounds, the fold resistance (FR) defined as FR=EC50(mutant strain)/EC50(HIV-1 strain LAI).

[2] = test system: clinically isolated HIV strain I; format: cell-based; conditions: FR=EC50(mutant strain)/EC50(HIV-1 strain LAI)
Protocol: as §1, with “At the end of the incubation period, all HIV-infected cells have been killed by the replicating virus in the control cultures in the absence of any inhibitor.” left out
as §3, §4

[3] = test system: clinically isolated HIV strain J; format: cell-based; conditions: FR=EC50(mutant strain)/EC50(HIV-1 strain LAI)
Protocol: as §1, with “At the end of the incubation period, all HIV-infected cells have been killed by the replicating virus in the control cultures in the absence of any inhibitor.” left out
as §3, §4

[4] = test system: clinically isolated HIV strain O; format: cell-based; conditions: FR=EC50(mutant strain)/EC50(HIV-1 strain LAI)
Protocol: as §1, with “At the end of the incubation period, all HIV-infected cells have been killed by the replicating virus in the control cultures in the absence of any inhibitor.” left out
as §3, §4

[5] = test system: clinically isolated HIV strain T; format: cell-based; conditions: FR=EC50(mutant strain)/EC50(HIV-1 strain LAI)
Protocol: as §1, with “At the end of the incubation period, all HIV-infected cells have been killed by the replicating virus in the control cultures in the absence of any inhibitor.” left out
as §3, §4

`CC(=O)Nc1nc2ccc(S(=O)(=O)N(CCNc3ccccn3)CC(O)C(Cc3ccccc3)NC(=O)OC3COC4OCCC34)cc2s1` (stereo not shown) [Compound 29] showed an EC50 (HIV-1 strain LAI) of 50 to 500 nM.
For `CC(=O)N(C)c1nc2ccc(S(=O)(=O)N(Cc3ccccn3)CC(O)C(Cc3ccccc3)NC(=O)OCc3c(C)cccc3C)cc2s1` (stereo not shown) [Compound 31], the EC50 (HIV-1 strain LAI) was over 500 nM.
In the case of `CC(C)CN(C[C@@H](O)[C@H](Cc1ccccc1)NC(=O)O[C@H]1CCOC1)S(=O)(=O)c1ccc2nc(NCCN3CCCC3)sc2c1.O=C(O)C(F)(F)F` [Compound 68], the “fold resistance (FR), strain F” value (virus strain F (R13025)) is reported as 65.2, the “fold resistance (FR), strain S” value (virus strain S (R13080)) is reported as 180.7 and the “fold resistance (FR), strain H” value [1] is reported as 7.3. For the same molecule, the “fold resistance (FR), strain I” value [2] was 2.4, the “fold resistance (FR), strain J” value [3] was 3.9 and the “fold resistance (FR), strain O” value [4] was 3.5. For the same molecule, the “fold resistance (FR), strain T” value [5] was 775.2.
In the case of `Cc1cc(Br)ccc1C(=O)N[C@@H](Cc1ccccc1)[C@H](O)CN(CC(C)C)S(=O)(=O)c1ccc2nc(NC(=O)CN3CCCC3)sc2c1` [Compound 70], the “fold resistance (FR), strain F” value (virus strain F (R13025)) is reported as 4.7, the “fold resistance (FR), strain S” value (virus strain S (R13080)) is reported as 10.4 and the “fold resistance (FR), strain H” value [1] is reported as 3.1. For the same molecule, the “fold resistance (FR), strain I” value [2] was 3.7, the “fold resistance (FR), strain J” value [3] was 3.3 and the “fold resistance (FR), strain O” value [4] was 3.2. The “fold resistance (FR), strain T” value [5] was 145.1.
`CC(=O)N(CCN1CCCC1)c1nc2ccc(S(=O)(=O)N(CC(C)C)C[C@@H](O)[C@H](Cc3ccccc3)NC(=O)OCc3cccnc3)cc2s1` [Compound 71] was tested, and the “fold resistance (FR), strain F” value (virus strain F (R13025)) was 29.6, the “fold resistance (FR), strain S” value (virus strain S (R13080)) was 79.6 and the “fold resistance (FR), strain H” value [1] was 2.7. For the same molecule, the “fold resistance (FR), strain I” value [2] was 2.2, the “fold resistance (FR), strain J” value [3] was 7.0 and the “fold resistance (FR), strain O” value [4] was 5.0. The “fold resistance (FR), strain T” value [5] was 321.5.
With `CC(=O)Nc1nc2ccc(S(=O)(=O)N(CC(C)C)C[C@@H](O)[C@H](Cc3ccccc3)NC(=O)c3cc([N+](=O)[O-])ccc3C)cc2s1` [Compound 72] the “fold resistance (FR), strain F” value (virus strain F (R13025)) was 67.0, the “fold resistance (FR), strain S” value (virus strain S (R13080)) was 118.0 and the “fold resistance (FR), strain H” value [1] was 24.9. For the same molecule, the “fold resistance (FR), strain I” value [2] was 26.2, the “fold resistance (FR), strain J” value [3] was 11.4 and the “fold resistance (FR), strain O” value [4] was 24.4. The “fold resistance (FR), strain T” value [5] was 641.1.
In the case of `CC(=O)Nc1nc2ccc(S(=O)(=O)N(CC(C)C)C[C@@H](O)[C@H](Cc3ccccc3)NC(=O)c3cc(N)ccc3C)cc2s1` [Compound 73], the “fold resistance (FR), strain F” value (virus strain F (R13025)) is reported as 43.1, the “fold resistance (FR), strain S” value (virus strain S (R13080)) is reported as 966.6 and the “fold resistance (FR), strain H” value [1] is reported as 9.8. For the same molecule, the “fold resistance (FR), strain I” value [2] was 12.1, the “fold resistance (FR), strain J” value [3] was 14.1 and the “fold resistance (FR), strain O” value [4] was 20.7. For the same molecule, the “fold resistance (FR), strain T” value [5] was 966.6.
`Cc1cc(C#N)cc(C)c1OCC(=O)N[C@@H](Cc1ccccc1)[C@H](O)CN(CC(C)C)S(=O)(=O)c1ccc2nc(NC(=O)CN3CCCC3)sc2c1` [Compound 75] was tested, and the “fold resistance (FR), strain F” value (virus strain F (R13025)) was 16.3, the “fold resistance (FR), strain S” value (virus strain S (R13080)) was 19.0 and the “fold resistance (FR), strain H” value [1] was 3.6. The “fold resistance (FR), strain I” value [2] was 7.4, the “fold resistance (FR), strain J” value [3] was 19.4 and the “fold resistance (FR), strain O” value [4] was 18.7. For the same molecule, the “fold resistance (FR), strain T” value [5] was 93.6.
For `CC(=O)N(C)c1nc2ccc(S(=O)(=O)N(CC(C)C)C[C@@H](O)[C@H](Cc3ccccc3)NC(=O)COc3c(C)cccc3C)cc2s1` [Compound 77], the “fold resistance (FR), strain F” value (virus strain F (R13025)) was 8.9, the “fold resistance (FR), strain S” value (virus strain S (R13080)) was 11.6 and the “fold resistance (FR), strain H” value [1] was 2.2. The “fold resistance (FR), strain I” value [2] was 8.3, the “fold resistance (FR), strain J” value [3] was 11.0 and the “fold resistance (FR), strain O” value [4] was 11.7. For the same molecule, the “fold resistance (FR), strain T” value [5] was 144.7.
`CC(=O)N(CCN1CCCC1)c1nc2ccc(S(=O)(=O)N(CC(C)C)C[C@@H](O)[C@H](Cc3ccccc3)NC(=O)COc3c(C)cccc3C)cc2s1` [Compound 78] was tested, and the “fold resistance (FR), strain F” value (virus strain F (R13025)) was 4.8, the “fold resistance (FR), strain S” value (virus strain S (R13080)) was 12.1 and the “fold resistance (FR), strain H” value [1] was 2.6. The “fold resistance (FR), strain I” value [2] was 3.9, the “fold resistance (FR), strain J” value [3] was 2.9 and the “fold resistance (FR), strain O” value [4] was 8.9. The “fold resistance (FR), strain T” value [5] was 60.5.
`CC(=O)N(C)c1nc2ccc(S(=O)(=O)N(CC(C)C)C[C@@H](O)[C@H](Cc3ccccc3)NC(=O)O[C@H]3CCOC3)cc2s1` [Compound 79] was tested, and the “fold resistance (FR), strain F” value (virus strain F (R13025)) was 113.0, the “fold resistance (FR), strain S” value (virus strain S (R13080)) was 313.0 and the “fold resistance (FR), strain H” value [1] was 12.1. For the same molecule, the “fold resistance (FR), strain I” value [2] was 3.9, the “fold resistance (FR), strain J” value [3] was 9.8 and the “fold resistance (FR), strain O” value [4] was 7.4. For the same molecule, the “fold resistance (FR), strain T” value [5] was 893.1.
With `CC(=O)N(C)c1nc2ccc(S(=O)(=O)N(CC(C)C)C[C@@H](O)[C@H](Cc3ccccc3)NC(=O)OCc3cncs3)cc2s1` [Compound 80] the “fold resistance (FR), strain F” value (virus strain F (R13025)) was 17.4, the “fold resistance (FR), strain S” value (virus strain S (R13080)) was 26.6 and the “fold resistance (FR), strain H” value [1] was 5.7. The “fold resistance (FR), strain I” value [2] was 3.9, the “fold resistance (FR), strain J” value [3] was 17.6 and the “fold resistance (FR), strain O” value [4] was 8.1. The “fold resistance (FR), strain T” value [5] was 457.6.
In the case of `CC(=O)N(C)c1nc2ccc(S(=O)(=O)N(CC(C)C)C[C@@H](O)[C@H](Cc3ccccc3)NC(=O)OCc3cccnc3)cc2s1` [Compound 81], the “fold resistance (FR), strain F” value (virus strain F (R13025)) is reported as 106.8, the “fold resistance (FR), strain S” value (virus strain S (R13080)) is reported as 121.0 and the “fold resistance (FR), strain H” value [1] is reported as 5.6. For the same molecule, the “fold resistance (FR), strain I” value [2] was 6.1, the “fold resistance (FR), strain J” value [3] was 29.6 and the “fold resistance (FR), strain O” value [4] was 20.4. For the same molecule, the “fold resistance (FR), strain T” value [5] was 387.6.
In the case of `CC(=O)N(C)c1nc2ccc(S(=O)(=O)N(CC(C)C)C[C@@H](O)[C@H](Cc3ccccc3)NC(=O)c3cccc(N)c3C)cc2s1` [Compound 82], the “fold resistance (FR), strain F” value (virus strain F (R13025)) is reported as 13.8, the “fold resistance (FR), strain S” value (virus strain S (R13080)) is reported as 17.9 and the “fold resistance (FR), strain H” value [1] is reported as 5.0. The “fold resistance (FR), strain I” value [2] was 4.4, the “fold resistance (FR), strain J” value [3] was 5.5 and the “fold resistance (FR), strain O” value [4] was 8.0. The “fold resistance (FR), strain T” value [5] was 214.1.
In the case of `CC(=O)N(C)c1nc2ccc(S(=O)(=O)N(CC(C)C)C[C@@H](O)[C@H](Cc3ccccc3)NC(=O)c3cccc(O)c3C)cc2s1` [Compound 83], the “fold resistance (FR), strain F” value (virus strain F (R13025)) is reported as 106.6, the “fold resistance (FR), strain S” value (virus strain S (R13080)) is reported as 132.1 and the “fold resistance (FR), strain H” value [1] is reported as 4.6. For the same molecule, the “fold resistance (FR), strain I” value [2] was 7.4, the “fold resistance (FR), strain J” value [3] was 8.4 and the “fold resistance (FR), strain O” value [4] was 1.5. For the same molecule, the “fold resistance (FR), strain T” value [5] was 438.6.
`CC(=O)Nc1nc2ccc(S(=O)(=O)N(CC(C)C)C[C@@H](O)[C@H](Cc3ccccc3)NC(=O)Cc3cc(C)no3)cc2s1` [Compound 84] was tested, and the “fold resistance (FR), strain F” value (virus strain F (R13025)) was 54.3, the “fold resistance (FR), strain S” value (virus strain S (R13080)) was 195.4 and the “fold resistance (FR), strain H” value [1] was 11.7. For the same molecule, the “fold resistance (FR), strain I” value [2] was 13.0, the “fold resistance (FR), strain J” value [3] was 19.6 and the “fold resistance (FR), strain O” value [4] was 6.1. The “fold resistance (FR), strain T” value [5] was 195.4.
